Measured values reported in PubChem BioAssay AID1845198 (Molecular Pharmacology Branch, DTP, NCI, 2023).

Tested on: 425362-245-T-J1 tumor spheroids, viability % test/control
Assay: Anticancer human tumor 425362-245-T-J1 patient-derived melanoma cell line growth inhibition
Details: spheroids with HUVEC and MSC; for IC50: curve of first compound; for viability, T/C: stronger effect = lower value
In short: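 Complex tumor spheroids combined malignant cells with endothelial cells and mesenchymal stem cells. DNA-damaging drugs and DNA repair inhibitors were tested alone and in combination, at half-log dilutions down from clinical Cmax (top 10 microM if Cmax unknown), 0.25% DMSO final.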

[1] = second compound 30 pM, first compound 0.00949 µM
[2] = second compound 30 pM, first compound 0.03 µM
[3] = second compound 30 pM, first compound 0.0949 µM
[4] = second compound 30 pM, first compound 0.3 µM
[5] = second compound 30 pM, first compound 0.949 µM
[6] = second compound 30 pM, first compound 3 µM
[7] = second compound 94.9 pM, first compound 0.00949 µM
[8] = second compound 94.9 pM, first compound 0.03 µM
[9] = second compound 94.9 pM, first compound 0.0949 µM
[10] = second compound 94.9 pM, first compound 0.3 µM
[11] = second compound 94.9 pM, first compound 0.949 µM
[12] = second compound 94.9 pM, first compound 3 µM
[13] = second compound 0.0003 µM, first compound 0.00949 µM
[14] = second compound 0.0003 µM, first compound 0.03 µM
[15] = second compound 0.0003 µM, first compound 0.0949 µM
[16] = second compound 0.0003 µM, first compound 0.3 µM
[17] = second compound 0.0003 µM, first compound 0.949 µM
[18] = second compound 0.0003 µM, first compound 3 µM
[19] = second compound 0.000949 µM, first compound 0.00949 µM
[20] = second compound 0.000949 µM, first compound 0.03 µM
[21] = second compound 0.000949 µM, first compound 0.0949 µM
[22] = second compound 0.000949 µM, first compound 0.3 µM
[23] = second compound 0.000949 µM, first compound 0.949 µM
[24] = second compound 0.000949 µM, first compound 3 µM
[25] = second compound 0.003 µM, first compound 0.00949 µM
[26] = second compound 0.003 µM, first compound 0.03 µM
[27] = second compound 0.003 µM, first compound 0.0949 µM
[28] = second compound 0.003 µM, first compound 0.3 µM
[29] = second compound 0.003 µM, first compound 0.949 µM
[30] = second compound 0.003 µM, first compound 3 µM
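Further: spheroids exposed to agents for 7 days.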
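Wherever viability, T/C is given: 100% = DMSO vehicle control viability.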

SMILES	IC50 (second compound 30 pM) [nM]	IC50 (second compound 94.9 pM) [nM]	IC50 (second compound 0.0003 µM) [nM]	IC50 (second compound 0.000949 µM) [nM]	IC50 (second compound 0.003 µM) [nM]	viability, T/C [3] [%]	viability, T/C [4] [%]	viability, T/C [5] [%]	viability, T/C [6] [%]	viability, T/C [9] [%]	viability, T/C [10] [%]	viability, T/C [11] [%]	viability, T/C [12] [%]	viability, T/C [15] [%]	viability, T/C [16] [%]	viability, T/C [17] [%]	viability, T/C [18] [%]	viability, T/C [21] [%]	viability, T/C [22] [%]	viability, T/C [23] [%]	further results
CNCc1ccc(-c2cc(-c3nc(-c4ccc(S(=O)(=O)C(C)C)cc4)cnc3N)on2)cc1 + COc1cc2c(cc1O)CCNC21CSC2c3c(OC(C)=O)c(C)c4c(c3C(COC1=O)N1C(O)C3Cc5cc(C)c(OC)c(O)c5C(C21)N3C)OCO4	161	131	< 9.49	< 9.49	< 9.49	85.1	8.53	2.32	0.13	68.1	3.99	1.51	0.15	16.4	1.69	0.79	0.15	0.27	0.35	0.13	viability, T/C [1]: 108%; viability, T/C [2]: 113%; viability, T/C [7]: 96.3%; viability, T/C [8]: 103%; viability, T/C [13]: 43.7%; viability, T/C [14]: 37%; viability, T/C [19]: 0.41%; viability, T/C [20]: 0.41%; viability, T/C [24]: 0.17%; viability, T/C [25]: 0.26%; viability, T/C [26]: 0.28%; viability, T/C [27]: 0.27%; viability, T/C [28]: 0.22%; viability, T/C [29]: 0.2%; viability, T/C [30]: 0.27%
Cc1sc2c(c1C)C(c1ccc(Cl)cc1)=NC(CC(=O)Nc1ccc(O)cc1)c1nnc(C)n1-2 (stereo not given) + COc1cc2c(cc1O)CCNC21CSC2c3c(OC(C)=O)c(C)c4c(c3C(COC1=O)N1C(O)C3Cc5cc(C)c(OC)c(O)c5C(C21)N3C)OCO4	69.4	67.7	11.2	< 9.49	< 9.49	46	14.2	1.75	1.2	40.3	5.16	2.11	0.76	17.1	3.14	0.36	0.19	0.1	0.04	0.04	viability, T/C [1]: 98.3%; viability, T/C [2]: 69.6%; viability, T/C [7]: 94.7%; viability, T/C [8]: 76.6%; viability, T/C [13]: 52.1%; viability, T/C [14]: 37.9%; viability, T/C [19]: 0.26%; viability, T/C [20]: 0.2%; viability, T/C [24]: 0.14%; viability, T/C [25]: 0.25%; viability, T/C [26]: 0.27%; viability, T/C [27]: 0.18%; viability, T/C [28]: 0.17%; viability, T/C [29]: 0.18%; viability, T/C [30]: 0.29%
Cn1ncnc1[C@H]1c2n[nH]c(=O)c3cc(F)cc(c23)N[C@@H]1c1ccc(F)cc1 + COc1cc2c(cc1O)CCNC21CSC2c3c(OC(C)=O)c(C)c4c(c3C(COC1=O)N1C(O)C3Cc5cc(C)c(OC)c(O)c5C(C21)N3C)OCO4	12.5	< 9.49	< 9.49	< 9.49	< 9.49	19.6	13.2	6.87	1.96	14.8	9.34	4.06	1.23	3.81	4.9	1.34	0.77	0.27	0.14	0.13	viability, T/C [1]: 56.7%; viability, T/C [2]: 30.3%; viability, T/C [7]: 42.5%; viability, T/C [8]: 20%; viability, T/C [13]: 25.2%; viability, T/C [14]: 6.95%; viability, T/C [19]: 0.45%; viability, T/C [20]: 0.42%; viability, T/C [24]: 0.22%; viability, T/C [25]: 0.34%; viability, T/C [26]: 0.37%; viability, T/C [27]: 0.33%; viability, T/C [28]: 0.35%; viability, T/C [29]: 0.3%; viability, T/C [30]: 0.36%
O=C(c1cc(Cc2n[nH]c(=O)c3ccccc23)ccc1F)N1CCN(C(=O)C2CC2)CC1 + COc1cc2c(cc1O)CCNC21CSC2c3c(OC(C)=O)c(C)c4c(c3C(COC1=O)N1C(O)C3Cc5cc(C)c(OC)c(O)c5C(C21)N3C)OCO4	2110	1420	< 94.9	< 94.9	< 94.9	87.2	93.6	67.9	43.4	83.1	79.2	56.2	36.3	32.6	35.5	22.8	7.06	0.47	0.29	0.17	viability, T/C (second compound 30 pM, first compound 9.49 µM): 10.1%; viability, T/C (second compound 30 pM, first compound 30 µM): 6.76%; viability, T/C (second compound 94.9 pM, first compound 9.49 µM): 5.46%; viability, T/C (second compound 94.9 pM, first compound 30 µM): 4.13%; viability, T/C (second compound 0.0003 µM, first compound 9.49 µM): 1.54%; viability, T/C (second compound 0.0003 µM, first compound 30 µM): 1.07%; viability, T/C [24]: 0.09%; viability, T/C (second compound 0.000949 µM, first compound 9.49 µM): 0.04%; viability, T/C (second compound 0.000949 µM, first compound 30 µM): 0.16%; viability, T/C [27]: 0.3%; viability, T/C [28]: 0.32%; viability, T/C [29]: 0.26%; viability, T/C [30]: 0.14%; viability, T/C (second compound 0.003 µM, first compound 9.49 µM): 0.15%; viability, T/C (second compound 0.003 µM, first compound 30 µM): 0.3%
